Data from patent publication US20130158264A1, “Polymorphs of OSI-906” (priority 2010, published 2013).
“Also recorded” adds a separate entry of the source.

Key:
Type in all cases: physicochemical
[1] = Gravimetric moisture sorption; conditions: for water adsorbed: 25° C.; for XRPD form of the dried solid following moisture sorption analysis: dried at 60° C./0% RH after the experiment; for stability upon desorption (loss of water): humidity reduced below 15%
Experimental: Gravimetric Moisture Sorption: Gravimetric moisture sorption experiments were carried out on selected materials by first drying the sample at 40% RH and 25° C. until an equilibrium weight was reached or for a maximum of four hours. The sample was then subjected to an isothermal (25° C.) adsorption scan from 40 to 90% RH in steps of 10%. The sample was allowed to equilibrate to an asymptotic weight at each point for a maximum of four hours. Following adsorption, a desorption scan from 85 to 0% RH (at 25° C.) was run in steps of −10% again allowing a maximum of four hours for equilibration to an asymptotic weight. An adsorption scan was then performed from 0% RH to 40% RH in steps of +10% RH. The sample was then dried for 1-2 hours at 60° C. and the resulting solid analyzed by XRPD.

[2] = Slurry experiments (form conversion by XRPD)
Experimental: Slurry Experiments: Approximately 20-50 mg of select crystalline forms were weighed to individual 8 mL vials equipped with a magnetic stir bar. Either THF, water, EtOH, (80:20) EtOH:Water or IPA was added to obtain a free flowing slurry. After 3, 5, 7 and 11 days of equilibration at 50° C. or ambient temperature, solid from each slurry was recovered by centrifuge filtration through 0.45 μm nylon filters. The isolated solids were analyzed by XRPD to check for form conversion. […] (Table 22).

[3] = Additional experiments to isolate OSI-906 solid forms (desiccant storage, exposure to lab humidity)
Experimental: Form C was confirmed to be a monohydrate of OSI-906 by gravimetric moisture sorption analysis. The solid form adsorbed approximately 4.2 wt % water at 30% RH which is consistent with the theoretical water content (4.1 wt %) of a monohydrate of OSI-906 (See FIG. 47). Upon desorption, hysteresis was observed between 25% RH and 5% RH. […] Based on these findings, an additional experiment was conducted in an effort to isolate this new crystalline form. An XRPD substrate containing Form C was placed in a desiccator at room temperature. After overnight storage, the slide was analyzed immediately by XRPD upon removal from the environment and brief exposure (<10 min) to the lab humidity (40-50% RH).

[4] = DSC isothermal hold at 105° C. followed by XRPD; conditions: held at 105° C. for five minutes
Experimental: Differential Scanning Calorimetry Analysis:
Differential scanning calorimetry (DSC) analyses were carried out on the samples “as is”. Samples were weighed in an aluminum pan, covered with a pierced lid, and then crimped. Analysis conditions were 30-105, 30-300, 30-350° C. at 10° C./min. In addition, isothermal holds were performed for a duration of five minutes at 105° C. and 200° C.
(See FIG. 49). In an effort to elucidate the additional thermal events, additional DSC experiments were conducted. Form C was held at 105° C. for five minutes, cooled to room temperature and then reheated to the same temperature. […] The isothermal hold experiment was repeated and the sample then exposed to the lab environment (˜40-50% RH) overnight. […] These observations are consistent with the results previously presented following storage of Form C under desiccant conditions.

[5] = Solid-state stability under storage conditions (XRPD)
Experimental: Solid-State Stability: Approximately 50 mg of Form A or Forms C+D were weighed to individual 8 mL vials and placed uncapped in the following storage conditions: 40° C. under vacuum, 80° C. under vacuum, desiccant, 25° C./60% RH and 40° C./75% RH. […] (Table 21). To assess the stability of Form A, the solid form was stored at different environmental conditions as described herein. Approximately 50 mg of Form A was weighed to 8 mL vials and placed uncapped in the following storage conditions: 40° C. under vacuum, 80° C. under vacuum, desiccant, 25° C./60% RH and 40° C./75% RH. After 24 hours and seven days of equilibration the solids were analyzed by XRPD. (See Table 21).

[6] = Thermal stress experiments (Forms B, D, E, and F) in vacuum oven
Experimental: Thermal Stress Experiments (Forms B, D, E, and F)
Solids were stressed under different temperature (40° C. or 80° C.) in a vacuum oven for a measured time period.

[7] = (80:20) EtOH:Water, prolonged equilibration at ambient and elevated temperature
[8] = water, prolonged equilibration at ambient and elevated temperature

Row | water adsorbed ([1]; 60% RH) | XRPD form of the dried solid following moisture sorption analysis [1] | stability upon desorption (loss of water) [1] | form stability in slurry [2, 7] | form stability in slurry ([2]; EtOH, ambient temperature) | form stability in slurry ([2]; EtOH, elevated temperature) | form stability in slurry ([2]; IPA) | form stability in slurry ([2]; THF) | form stability in slurry [2, 8] | XRPD Result after thermal stress ([6]; 40° C., 3 d) | Structure (SMILES) | further results
1 | 0.2 wt % | consistent with the initial form | – | – | – | – | – | – | – | – | CC1(O)CC(c2nc(-c3ccc4ccc(-c5ccccc5)nc4c3)c3c(N)nccn23)C1 (stereo not drawn) [Form A, cis-3-[8-amino-1-(2-phenyl-quinolin-7-yl)-imidazo[1,5-a]pyrazin-3-yl]-1-methylcyclobutanol] | hygroscopicity by gravimetric moisture sorption analysis [1]: non-hygroscopic; water adsorbed ([1]; 90% RH): 0.3 wt %
2 | approximately 3.9 wt % | mixture of Forms C and D | not stable | conversion to Form C | Form C | converting to either Form A or E | conversion to Form A | conversion to Form A | stable | Form C | CC1(O)CC(c2nc(-c3ccc4ccc(-c5ccccc5)nc4c3)c3c(N)nccn23)C1 (stereo not drawn) [Form D, cis-3-[8-amino-1-(2-phenyl-quinolin-7-yl)-imidazo[1,5-a]pyrazin-3-yl]-1-methylcyclobutanol] | solid-state stability (summary in words) ([5]; one and seven days at 25° C./60% RH, 40° C./75% RH and under desiccant conditions): exhibited stability; solid-state stability (summary in words) ([5]; one and seven days at elevated temperature drying conditions (40° C. or 80° C. under vacuum)): conversion to Form C
3 | – | – | – | – | – | – | – | – | – | Form C | CC1(O)CC(c2nc(-c3ccc4ccc(-c5ccccc5)nc4c3)c3c(N)nccn23)C1 (stereo not drawn) [Form F, cis-3-[8-amino-1-(2-phenyl-quinolin-7-yl)-imidazo[1,5-a]pyrazin-3-yl]-1-methylcyclobutanol] | XRPD Result after thermal stress ([6]; 80° C., overnight): Form C
4 | – | – | – | – | – | – | – | – | – | – | CC1(O)CC(c2nc(-c3ccc4ccc(-c5ccccc5)nc4c3)c3c(N)nccn23)C1 (stereo not drawn) [Form I, cis-3-[8-amino-1-(2-phenyl-quinolin-7-yl)-imidazo[1,5-a]pyrazin-3-yl]-1-methylcyclobutanol] | XRPD form after exposure to lab humidity ([3]; 1 hour, lab humidity 40-50% RH): conversion to Form C

Row | Structure (SMILES) | water adsorbed ([1]; 60% RH) | XRPD form of the dried solid following moisture sorption analysis [1] | stability upon desorption (loss of water) [1] | form stability in slurry [2, 7] | form stability in slurry ([2]; EtOH, ambient temperature) | form stability in slurry ([2]; EtOH, elevated temperature) | form stability in slurry ([2]; IPA) | form stability in slurry ([2]; THF) | form stability in slurry [2, 8] | XRPD Result after thermal stress ([6]; 40° C., 3 d) | further results
5 | CC1(O)CC(c2nc(-c3ccc4ccc(-c5ccccc5)nc4c3)c3c(N)nccn23)C1 (stereo not drawn) [Form C, cis-3-[8-amino-1-(2-phenyl-quinolin-7-yl)-imidazo[1,5-a]pyrazin-3-yl]-1-methylcyclobutanol] | – | mixture of Form C and an unidentified crystalline form; also recorded: mixture of Forms C+I | not stable | stable | exhibiting stability | conversion to Forms A or E | conversion to Form A | conversion to Form A | stable | – | water adsorbed ([1]; 30% RH): approximately 4.2 wt %; XRPD form after slurry ([2]; THF, room temperature, 11 day): Form A; XRPD form after desiccant storage ([3]; overnight in a desiccator at room temperature): Form I; XRPD form after DSC isothermal hold [4]: indicative of Form C
